Type in all cases: cell-based
Test [1] concerns Adult Normal Human Epidermal Keratinocytes. Put plainly: Differential gene expression (RNA sequencing) in keratinocytes treated with walnut peptides. The settings on record: 100 uM or 500 uM peptide in culture media. As to the method: Peptide I, II, and III were investigated for their ability to influence gene expression at concentration at 100 μM abd 500 μM for cells and 250 μM for reconstructed human epidermis (RHE).
Adult Normal Human Epidermal Keratinocytes (Lot 80819221, Passage 3, ATCC) were expanded and seeded into a 6-well plate at a density of 300,000 cells/well. Cells were grown in Dermal Cell Basal Medium (ATCC PCS-200-030) supplemented with one Keratinocyte Growth Kit (ATCC PCS-200-040). Cells attached overnight and then culture media was aspirated and replaced with media containing either 100 uM or 500 uM of Peptide I, Peptide II, or Peptide III. Cells were cultured for […] with treatment with renewal of treatment medium every other day with the exception of weekends. Following the 7-day incubation period, cells were trypsinized and the cell pellet was snap-frozen using liquid nitrogen. Cells then underwent RNA sequencing. The log 2 fold change for each treatment group compared to untreated control samples for differentially expressed genes (DEGs) related to skin barrier were analyzed. Fold change was plotted via heatmap to show upregulation or downregulation of these genes. Microsoft Excel and GraphPad Prism were used for additional analysis and data presentation. The results are shown in the heatmap of FIG. 1.

Test [2] relates to filaggrin (FLG). Put plainly: Barrier renewal, microneedle ex vivo skin model: filaggrin immunohistochemistry. As to conditions: 500 μM of each peptide in media; 7-day culture; microneedled human skin explants. From the text:
(§1) Fresh post-abdominoplasty normal human skin samples were acquired from BioIVT Inc. (Westbury, NY). Tissue was defatted and cleaned of blood residue. Tissue was then subjected to treatment using a microneedling pen (36-pin needles, Dr. Pen A6 Cartridges Tips, Dr. Pen Inc., San Jose, CA, USA) with a needle length of 1.5 mm. Tissue was subjected to 5 passes of the microneedle. Following treatment, 1.2 cm diameter skin biopsies were created and cultured at the air-liquid interface. Skin explants not subjected to microneedling served as the untreated control group. Control and microneedle control samples were cultured in Dulbecco's Modified Eagle's Medium (650 μL per well, DMEM with 10% fetal bovine serum and 1% penicillin-streptomycin) at 37° C. and 5% CO2. Treated microneedle samples with the peptides were cultured in DMEM with 10% fetal bovine serum, 1% penicillin-streptomycin. 500 uM of each peptide was dissolved into the media. Treatment medium was changed every other day with the exception of weekends. Following a 7-day culture period, all biopsies were processed for histological and immunohistochemical analysis. Skin explants were processed for hematoxylin and eosin (H&E) staining and immunohistochemical staining against filaggrin (FLG) and transglutaminase 1 (TGM1) according to standard protocol (HistoWiz, Brooklyn, NY).

Test [3] deals with transglutaminase 1 (TGM1). The test is described as follows: Barrier renewal, microneedle ex vivo skin model: TGM1 immunohistochemistry. As to conditions: 500 μM of each peptide in media; 7-day culture; microneedled human skin explants.
Source text: as §1

In test [4] the test system is normal human skin samples. The test is described as follows: Ex vivo chronic inflammation model (CSC): H&E histology. As to conditions: 500 μM of each peptide; cell stimulation cocktail (CSC); 7-day culture; human skin explants. Here is the method: Fresh post-abdominoplasty normal human skin samples were acquired from BioIVT Inc. (Westbury, NY). Tissue was defatted and cleaned of blood residue. 1.2 cm diameter skin biopsies were created and cultured at the air-liquid interface. Skin explants not subjected to the inflammatory stimulant served as the untreated control group. Control samples were cultured in Dulbecco's Modified Eagle's Medium (650 μL per well, DMEM with 10% fetal bovine serum and 1% penicillin-streptomycin) at 37° C. and 5% CO2. Treated microneedle samples with the peptides were cultured in DMEM with 10% fetal bovine serum, 1% penicillin-streptomycin with a 2× dilution of cell stimulation cocktail (CSC) 500×. Samples treated with the peptide contained 500 μM of each peptide dissolved into the media. Fresh stimulants were made each time replenishing the treatment medium every other day with the exception of weekends. Following a 7-day culture period, all biopsies were processed for histological and immunohistochemical analysis. Skin explants were processed for hematoxylin and eosin (H&E) staining and immunohistochemical staining against filaggrin (FLG) and transglutaminase 1 (TGM1) according to standard protocol (HistoWiz, Brooklyn, NY).

“Lys-Val-Pro-Pro-Leu-Leu-Tyr (KVPPLLY) (printed: Lys-Val-Pro-Pro-Leu-Leu-Tyr) [Peptide III]”: in test [1], the “differentially expressed genes (DEGs) related to skin barrier, log 2 fold change compared to untreated control (FIG. 1)” value is “strong benefits to the skin barrier on a cellular level at both concentrations tested”. The “filaggrin expression after microneedling” value in test [2] was “increase filaggrin expression”. For the same substance, the “expression and localization of TGM1 after microneedling” value (shortened to “expression and localization of TGM1”) in test [3] was “increase the expression of TGM1 and localization”. Also, the “epidermal stress, spongiosis/vacuole formation induced by CSC (H&E histology, FIG. 4)” value in test [4] is recorded as “ameliorated”.
Turning to “Tyr-Val-Leu-Leu-Pro-Ser-Pro-Lys (YVLLPSPK) (printed: Tyr-Val-Leu-Leu-Pro-Ser-Pro-Lys) [Peptide II]”, the “differentially expressed genes (DEGs) related to skin barrier, log 2 fold change compared to untreated control (FIG. 1)” value in test [1] is reported as “strong benefits to the skin barrier on a cellular level at both concentrations tested”. Besides, the “filaggrin expression after microneedling” value in test [2] is reported as “increase filaggrin expression”. For the same substance, in test [3], the “expression and localization of TGM1” value was “increase the expression of TGM1 and localization”. Also, in test [4], the “epidermal stress, spongiosis/vacuole formation induced by CSC (H&E histology, FIG. 4)” value was “ameliorated”.
Take “Thr-Trp-Leu-Pro-Leu-Pro-Arg (TWLPLPR) (printed: Thr-Trp-Leu-Pro-Leu-Pro-Arg) [Peptide I]”: the “differentially expressed genes (DEGs) related to skin barrier, log 2 fold change compared to untreated control (FIG. 1)” value in test [1] is listed as “showed an influence at the higher concentration”. For the same substance, the “filaggrin expression after microneedling” value in test [2] was “increase filaggrin expression”. Besides, in test [3], the “expression and localization of TGM1” value was “increase the expression of TGM1 and localization”. The “epidermal stress, spongiosis/vacuole formation induced by CSC (H&E histology, FIG. 4)” value in test [4] is given as “ameliorated”.

Source of the values: patent publication US20250213646A1, “BIOACTIVE WALNUT PEPTIDES AND COMPOSITIONS FOR TREATING SKIN” (L'OREAL, priority 2024, published 2025).
